Measured values published in BindingDB's records for PubMed 11454940 (Sanofi Synthelabo, 2001).
“And” between values parts separate entries of the source, which are not always exact repeats. Equal values may be shown once.

Experiments:
[1] = target: Gamma-aminobutyric acid receptor subunit alpha-1 (Rattus norvegicus, UniProt P62813)
[2] = target: Gamma-aminobutyric acid receptor subunit alpha-2 (Rattus norvegicus, UniProt P23576)
[3] = target: Gamma-aminobutyric acid receptor subunit alpha-3 (Rattus norvegicus, UniProt P20236)
[4] = target: Gamma-aminobutyric acid receptor subunit alpha-5 (Rattus norvegicus, UniProt P19969)
Gamma-aminobutyric acid receptor subunit alpha-5, sequence (P19969 whole entry): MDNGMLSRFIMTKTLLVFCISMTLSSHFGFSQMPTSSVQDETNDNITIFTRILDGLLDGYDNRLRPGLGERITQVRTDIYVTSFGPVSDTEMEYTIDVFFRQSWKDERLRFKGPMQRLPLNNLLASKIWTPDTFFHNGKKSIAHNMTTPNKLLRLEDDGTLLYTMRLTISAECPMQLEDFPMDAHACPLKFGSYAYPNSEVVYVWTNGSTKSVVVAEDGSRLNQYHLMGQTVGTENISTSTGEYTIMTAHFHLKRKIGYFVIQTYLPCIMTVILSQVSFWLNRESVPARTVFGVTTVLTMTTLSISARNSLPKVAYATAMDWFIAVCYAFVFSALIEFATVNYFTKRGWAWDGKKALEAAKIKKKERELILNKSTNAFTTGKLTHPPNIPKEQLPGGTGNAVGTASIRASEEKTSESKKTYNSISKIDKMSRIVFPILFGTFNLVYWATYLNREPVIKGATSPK

Gamma-aminobutyric acid receptor subunit alpha-2, sequence (P23576 whole entry): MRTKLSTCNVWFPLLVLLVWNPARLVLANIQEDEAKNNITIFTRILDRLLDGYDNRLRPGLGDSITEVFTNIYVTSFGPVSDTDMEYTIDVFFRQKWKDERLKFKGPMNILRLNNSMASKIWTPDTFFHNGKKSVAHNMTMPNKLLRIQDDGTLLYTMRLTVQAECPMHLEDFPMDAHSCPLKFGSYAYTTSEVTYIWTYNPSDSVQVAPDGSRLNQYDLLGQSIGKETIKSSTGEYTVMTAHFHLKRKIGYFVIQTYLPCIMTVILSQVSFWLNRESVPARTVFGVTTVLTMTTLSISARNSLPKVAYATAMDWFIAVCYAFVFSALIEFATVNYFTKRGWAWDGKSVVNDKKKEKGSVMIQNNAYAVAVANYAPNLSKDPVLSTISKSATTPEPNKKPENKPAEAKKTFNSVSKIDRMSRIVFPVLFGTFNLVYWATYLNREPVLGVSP
Gamma-aminobutyric acid receptor subunit alpha-1, sequence (P62813 whole entry): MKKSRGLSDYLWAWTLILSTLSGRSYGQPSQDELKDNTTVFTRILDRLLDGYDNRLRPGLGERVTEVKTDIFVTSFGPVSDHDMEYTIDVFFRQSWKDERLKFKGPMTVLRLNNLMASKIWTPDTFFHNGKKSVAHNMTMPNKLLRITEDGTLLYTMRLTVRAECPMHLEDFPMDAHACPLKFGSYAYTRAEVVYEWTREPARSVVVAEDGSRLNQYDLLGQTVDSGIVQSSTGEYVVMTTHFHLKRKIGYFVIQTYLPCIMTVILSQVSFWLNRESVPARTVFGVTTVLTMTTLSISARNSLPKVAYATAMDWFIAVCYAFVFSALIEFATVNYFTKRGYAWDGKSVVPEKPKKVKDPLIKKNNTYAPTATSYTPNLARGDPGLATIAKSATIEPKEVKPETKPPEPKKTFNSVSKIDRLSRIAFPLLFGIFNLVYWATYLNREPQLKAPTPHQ
Gamma-aminobutyric acid receptor subunit alpha-3, sequence (P20236 whole entry I342M/K409L): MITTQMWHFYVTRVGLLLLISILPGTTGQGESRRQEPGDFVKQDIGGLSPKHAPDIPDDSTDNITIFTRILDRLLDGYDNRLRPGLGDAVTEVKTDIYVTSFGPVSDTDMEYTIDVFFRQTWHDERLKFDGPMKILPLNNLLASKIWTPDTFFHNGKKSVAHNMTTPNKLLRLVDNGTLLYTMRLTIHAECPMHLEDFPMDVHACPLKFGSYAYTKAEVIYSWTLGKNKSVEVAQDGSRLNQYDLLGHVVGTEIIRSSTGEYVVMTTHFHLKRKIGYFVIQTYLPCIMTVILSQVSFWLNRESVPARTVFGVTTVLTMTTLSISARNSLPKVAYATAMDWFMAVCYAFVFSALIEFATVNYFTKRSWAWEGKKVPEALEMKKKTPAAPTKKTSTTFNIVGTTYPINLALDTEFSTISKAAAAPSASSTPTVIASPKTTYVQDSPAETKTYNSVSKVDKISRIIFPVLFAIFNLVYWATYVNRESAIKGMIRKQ

- Ki [1]: 6.8 nM and 17 nM
- Ki [2]: 12.3 nM and 73 nM
- Ki [3]: 80.3 nM
- Ki [4]: 117 nM and 215 nM
SMILES: Cn1c2ccc(F)cc2c2c(C(=O)N3CCCC3)cn(-c3ccccc3)c(=O)c21 [6-FLUOR-2-FENYL-9-METHYL-4-(PYRROLIDINE-1-CARBONYL)-9H-PYRIDO[3,4B]INDOOL-1(2H)-ON]
